Experimental findings from PubChem BioAssay (NCI) are described below.

Test systems include A549 NSCLC; DU-145 prostate; UACC-62 melanoma; SK-MEL-2 melanoma; NCI-H522 lung; CAKI-1 renal; PC-3 prostate; SF-539 CNS; BT-549 breast; HL-60(TB) leukemia.
What all share (assay): NCI tumour cell line growth inhibition, 48 h

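Where inhibition never reached the appropriate level, the endpoint shown equals the highest concentration tested. Otherwise, values were interpolated linearly from a five-concentration, 48-hour dose response in 96-well plates. Definition used: TGI = concentration required for complete inhibition of growth.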

With `NC(N)=NS(=O)(=O)c1ccc(NC(=O)c2c3ccccc3nc3ccccc23)cc1`, the TGI in the experiment with A549 NSCLC, in the experiment on DU-145 prostate, with UACC-62 melanoma, with SK-MEL-2 melanoma, in the experiment with NCI-H522 lung and with CAKI-1 renal was more than 100 µM each time. For the same compound, the TGI in the experiment with PC-3 prostate, in the experiment on SF-539 CNS and with BT-549 breast was more than 100 µM each time.
For the compound `O=C(Cl)c1cc([N+](=O)[O-])cc([N+](=O)[O-])c1`, the TGI in the experiment with A549 NSCLC, in the experiment on UACC-62 melanoma, with SK-MEL-2 melanoma, in the experiment with HL-60(TB) leukemia, in the experiment on NCI-H522 lung and with CAKI-1 renal was more than 100 µM throughout. Also, in the experiment with SF-539 CNS, the TGI was more than 100 µM.
With `COc1cc(/C=C/C(=O)C(C)(C)C)cc(OC)c1OC`, the TGI in the experiment with A549 NSCLC is more than 100 µM; in the experiment with UACC-62 melanoma, more than 100 µM; in the experiment with SK-MEL-2 melanoma, more than 100 µM; with HL-60(TB) leukemia, 53 µM; with NCI-H522 lung, more than 100 µM; in the experiment with CAKI-1 renal it was more than 100 µM. For the same compound, in the experiment on SF-539 CNS, the TGI is more than 100 µM.
With `Nc1nc(NC(=O)C2=NS(=O)(=O)c3cc(S(N)(=O)=O)c(Cl)cc3N2)n[nH]1`, the TGI with A549 NSCLC, in the experiment with UACC-62 melanoma, with NCI-H522 lung, in the experiment on CAKI-1 renal and with SF-539 CNS was more than 100 µM each time.
With `COC(=O)c1cc(CNCCc2c[nH]c3ccccc23)on1`, the TGI is more than 100 µM in the experiment on A549 NSCLC; more than 100 µM in the experiment on DU-145 prostate; more than 100 µM in the experiment with UACC-62 melanoma; more than 100 µM with SK-MEL-2 melanoma; more than 100 µM with HL-60(TB) leukemia; 73.5 µM in the experiment on NCI-H522 lung. In addition, the TGI in the experiment with CAKI-1 renal, in the experiment on PC-3 prostate and with SF-539 CNS was more than 100 µM each time.
As to `Cc1c2cccc-2c(N(C)C)cc2c1[nH]c1ccccc12`, the TGI with A549 NSCLC was 18.6 µM; in the experiment on DU-145 prostate it was 28.7 µM; with HL-60(TB) leukemia it was 5.74 µM; in the experiment on CAKI-1 renal, 32.7 µM; with PC-3 prostate, 5.33 µM; in the experiment with SF-539 CNS, 4.31 µM. Moreover, the TGI in the experiment with BT-549 breast was 8.19 µM.
For the compound `CC(=O)NC(Cc1ccccc1)C(=S)N1CCCC1` (stereo unspecified), the TGI in the experiment on A549 NSCLC, in the experiment on UACC-62 melanoma, in the experiment with SK-MEL-2 melanoma, in the experiment on HL-60(TB) leukemia, in the experiment on NCI-H522 lung and in the experiment with CAKI-1 renal was more than 100 µM each time. Besides, the TGI in the experiment with SF-539 CNS is more than 100 µM.
For the compound `Cc1ccc(CCNC(=S)SCC(NC(=O)CCC(N)C(=O)O)C(=O)NCC(=O)O)cc1` (stereo unspecified), the TGI in the experiment with A549 NSCLC is 13.4 µM; in the experiment on UACC-62 melanoma, 3.08 µM; in the experiment with SK-MEL-2 melanoma, 1.45 µM; with HL-60(TB) leukemia, 2.6 µM; in the experiment with NCI-H522 lung, 1.45 µM; with CAKI-1 renal it was 3.44 µM. This compound had a TGI in the experiment with SF-539 CNS of 2.97 µM.
For `CC1(C)CC(=O)C2=C(C1)OC1=C(CC(C)(C)CC1=O)C2c1ccccc1Cl` (stereo unspecified), the TGI in the experiment on A549 NSCLC, with DU-145 prostate, in the experiment with UACC-62 melanoma, in the experiment with SK-MEL-2 melanoma, with HL-60(TB) leukemia and with NCI-H522 lung was more than 100 µM each time. The TGI with CAKI-1 renal, in the experiment on PC-3 prostate and in the experiment on SF-539 CNS was more than 100 µM in each case.
As to `C[N+](C)(C)CC(=O)N/N=C(\C(=O)Nc1ccc(Cl)cc1)C1C(=O)N(c2ccccc2)N=C1N` (stereo unspecified), the TGI with A549 NSCLC, in the experiment with UACC-62 melanoma, in the experiment with SK-MEL-2 melanoma, in the experiment on HL-60(TB) leukemia, in the experiment on NCI-H522 lung and in the experiment on CAKI-1 renal was more than 100 µM throughout. The compound also had a TGI in the experiment on SF-539 CNS of more than 100 µM.
As for `OB1OCc2ccccc21`, the TGI with A549 NSCLC, in the experiment on DU-145 prostate, with UACC-62 melanoma, with SK-MEL-2 melanoma, in the experiment on HL-60(TB) leukemia and in the experiment with CAKI-1 renal was more than 100 µM throughout. The TGI in the experiment on PC-3 prostate was 64.4 µM; with SF-539 CNS it was 64.4 µM; with BT-549 breast it was more than 100 µM.
With `COC(=O)c1ccc2[nH]c3c(c2c1)CC(=O)Nc1ccccc1-3`, the TGI in the experiment with A549 NSCLC, in the experiment on DU-145 prostate, in the experiment on UACC-62 melanoma, in the experiment on SK-MEL-2 melanoma, in the experiment on NCI-H522 lung and with CAKI-1 renal was more than 100 µM each time. The results for the TGI in the experiment on PC-3 prostate, in the experiment with SF-539 CNS and in the experiment on BT-549 breast were more than 100 µM, 5.52 µM and more than 100 µM, respectively.
`C[N+]12C=CC=C1C(N1CCCC1)c1sc(-c3ccc(Cl)cc3)cc12` (stereo unspecified): the TGI with A549 NSCLC was 87.6 µM; in the experiment on DU-145 prostate, 32.6 µM; in the experiment with UACC-62 melanoma, 28.4 µM; in the experiment on SK-MEL-2 melanoma, 21.1 µM; in the experiment on NCI-H522 lung, 27 µM; with CAKI-1 renal, more than 100 µM. Besides, the TGI in the experiment with PC-3 prostate was 29.9 µM; with BT-549 breast, 22 µM.
Turning to `CC(C)(C)OC(=O)NCCNC(=O)OCc1ccccc1`, the TGI in the experiment on A549 NSCLC, in the experiment with DU-145 prostate, in the experiment with UACC-62 melanoma, with SK-MEL-2 melanoma, in the experiment on NCI-H522 lung and in the experiment on CAKI-1 renal was more than 100 µM in each case. Further, the TGI with PC-3 prostate, in the experiment with SF-539 CNS and in the experiment on BT-549 breast was more than 100 µM in each case.
As for `CC1=CC(=O)C[C@]2(C)[C@@H](O)CC(C(C)CO)C[C@@H]12` (stereo partly specified), the TGI in the experiment with A549 NSCLC, with DU-145 prostate, in the experiment on UACC-62 melanoma, in the experiment with SK-MEL-2 melanoma, in the experiment on HL-60(TB) leukemia and in the experiment on CAKI-1 renal was more than 100 µM in each case. In addition, the TGI with SF-539 CNS and with BT-549 breast was more than 100 µM in each case.
Consider `COc1ccc2[nH]c3c(C)c4ccnc(NCCCN(C)CCCNC(=O)NCCCN(C)CCCNc5nccc6c(C)c7[nH]c8ccc(OC)cc8c7c(C)c56)c4c(C)c3c2c1`, for which the TGI in the experiment with DU-145 prostate was more than 10.9 µM; with UACC-62 melanoma it was more than 11.6 µM; in the experiment on SK-MEL-2 melanoma it was 4.07 µM; in the experiment with HL-60(TB) leukemia it was 1.2 µM; in the experiment on CAKI-1 renal it was 3.34 µM; with PC-3 prostate it was 2.79 µM. Moreover, the figures for the TGI in the experiment with SF-539 CNS and with BT-549 breast were 1.18 µM and 4.99 µM, respectively.
As for `CCN(CC)CC(C(=O)Nc1c(C)cccc1C)/C(C)=N/NC(N)=S` (stereo unspecified), the TGI in the experiment on A549 NSCLC, with UACC-62 melanoma, in the experiment on SK-MEL-2 melanoma, with HL-60(TB) leukemia, with NCI-H522 lung and with SF-539 CNS was more than 100 µM in each case.
